Assay results as given in US20140031388A1, “AKT INACTIVATION BY TOCOPHERYL DERIVATIVES” (priority 2012, published 2014).
pIC50, pKd: −log10 of the molar value. Read-outs that look alike come from different tables or passages of the source.

Key:
[1] = target: T1, PH domain of Akt (GST-PH domain fusion protein) (Homo sapiens, UniProt P31749); assay: Surface plasmon resonance binding, Akt PH domain; details: Table 3; binding affinities to the Akt PH domain; read-out: Kd
T1 construct: made in house
Text: The cDNA fragments corresponding to the putative PH domain sequences of PHLPP1 (+115 to +372), PDK1 (+1225 to +1671), Akt1 (+1 to +447) and ILK (+538 to +646) were PCR-amplified using the plasmids pcDNA-HA-PHLPP1, pWZL-Neo-Myr-FLAG-PDPK1, pcDNA-HA-PKB-T308D-S473D, and pCMV-SPORT-ILK (Addgene) as templates. The PCR products were then cloned into EcoRI/XhoI sites of the pGEX-4T1 expression vector (GE Healthcare Life Sciences) to generate four constructs (pGEX-4T1-PHLPP1, pGEX-4T1-PDPK1, pGEX-4T1-AKT1, pGEX-4T1-ILK) for the expression of GST-PH domain fusion proteins. The mutated Akt1 Y38G PH domain was generated from pGEX-4T1-AKT1 by site-directed mutagenesis using the QuikChange II XL Site-Directed Mutagenesis Kit (Agilent Technologies). The expression and purification of GST-PH domain fusion proteins were performed essentially as described previously. Thomas et al., Curr Biol 12, 1256 (2002). The purified PH domains were analyzed by SDS-PAGE using an overloaded gel with purities were estimated to be >95% using ImageJ software.
Binding experiments were performed using a Biacore T100 system (GE Healthcare, Piscataway, N.J.). The GST-PH domain fusion proteins were immobilized on a CM5 S Sensorchip using Biacore's Amine Coupling Kit to a level of 17,000 response units. VE5 compounds and di-octanoyl PIP3 at concentrations ranging from 0.1 to 100 μM and 1 to 20 μm, respectively, were injected at a high flow rate (30 μL/min) over the biosensor surface for binding analyses. DMSO concentrations in all samples and running buffer were 1% (v/v) or less. Data were analyzed using Biacore T100 Evaluation Software.

PC-3 cells = assay: MTT viability assay, PC-3; assay type: cell-based; details: Homo sapiens; for IC50: 1% FBS-containing or serum-free RPMI 1640 medium for 24 h, read-out: IC50 (μM) PC-3; for pIC50: read-out: IC50
Experimental: (§1) The prostate cancer cell lines, LNCaP and PC-3, were purchased from American Type Culture Collection (Manassas, Va.) and maintained in RPMI 1640 medium containing 10% heat-inactivated fetal bovine serum at 37° C. in a humidified incubator containing 5% CO2. The LNCaP-abl cells were a generous gift from Dr. Qianben Wang (The Ohio State University). Normal prostate epithelial cells were purchased from Lonza (Walkersville, Md.) and were cultured in the vendor-recommended defined prostate epithelial cell growth medium. For experiments, LNCaP cells were plated on poly-D-lysine-coated culture flasks at a density of 12,000 cells per cm^2 surface area for 24 hours, followed by treatment with test agents in serum-free RPMI 1640 medium. The α- and γ-tocopherols were purchased from Sigma-Aldrich (St. Louis, Mo.). The tocopherol derivatives, α- and γ-VE5, were synthesized by the inventors.
(§2) LNCaP cells were plated into poly-D-lysine-coated 96-well plates and PC-3 and LNCaP-abl cells into uncoated plates at the density of 5,000 cells per well in the presence of 10% FBS. Normal prostate epithelial cells were plated into uncoated plates at a density of 8,000 cells per well. […] After 24 hours of treatment, cells were incubated with MTT [3-(4,5-dimethylthiazol-2-yl)-2,5-diphenyl-2H-tetrazolium bromide] (TCI America; 0.5 mg/ml, final concentration) for an additional 2 hours. The medium was then removed from each well and replaced with DMSO to dissolve the reduced MTT dye for subsequent colorimetric measurement of absorbance at 595 nm. Cell viabilities are calculated as percentages of that in the corresponding vehicle-treated control group.

LNCaP cells = assay: MTT viability assay, LNCaP; assay type: cell-based; details: Homo sapiens, 1% FBS-containing or serum-free RPMI 1640 medium for 24 h
Experimental: as §1, §2

[2] = system: mTORC2 (mTOR, rictor, SGK, PKCα); assay: Western blot of mTORC2 components and downstream targets; assay type: cell-based
Experimental: (§3) Cells were exposed to the test agents in 10-cm dishes for 24 hours and then collected by scraping. The cell pellets were washed once with PBS, and then lysed at 4° C. over 30 min of incubation in a sodium dodecyl sulfate (SDS) lysis buffer containing 1% SDS, 50 mM Tris HCl (pH 8.1), 10 mM EDTA and […] protease inhibitor cocktail (Sigma-Aldrich). The cell debris was pelleted by centrifugation for 20 min at 14,000×g, and 1 μl of each supernatant was used for determination of protein concentration using a colorimetric bicinchoninic assay (Pierce, Rockford, Ill.). The remaining sample was added to equal volume of 2×SDS-polyacrylamide gel electrophoresis sample loading buffer (62.5 mM Tris-HCl, pH 6.8, 4% SDS, 5% β-mercaptoethanol, 20% glycerol, 0.1% bromophenol blue), followed by incubation in boiling water for 5 min. Equivalent amounts of total protein were resolved in SDS-polyacrylamide gels, and then transferred to nitrocellulose membranes using a semidry transfer cell. The transblotted membrane was washed twice with Tris-buffered saline containing 0.1% Tween 20 (TBST). After blocking with TBST containing 5% nonfat milk for 40 min, the membrane was incubated with the appropriate primary antibody (1:1000) in TBST-1% nonfat milk at 4° C. overnight. The membrane was then washed three times with TBST for a total of 15 min, followed by incubation with goat anti-rabbit or anti-mouse IgG-horseradish peroxidase conjugates (1:2000) for 1 hour at room temperature and four washes with TBST for a total of 1 hour. The immunoblots were visualized by enhanced chemiluminescence (GE Healthcare Life Sciences).

[3] = system: Normal prostate epithelial cells; assay: Viability / apoptosis in normal prostate epithelial cells; assay type: cell-based
Experimental: as §1
(§4) LNCaP cells were plated into poly-D-lysine-coated 96-well plates and PC-3 and LNCaP-abl cells into uncoated plates at the density of 5,000 cells per well in the presence of 10% FBS. Normal prostate epithelial cells were plated into uncoated plates at a density of 8,000 cells per well. Exposure to test agents in serum-free medium was initiated 24 hours later. After 24 hours of treatment, cells were incubated with MTT [3-(4,5-dimethylthiazol-2-yl)-2,5-diphenyl-2H-tetrazolium bromide] (TCI America; 0.5 mg/ml, final concentration) for an additional 2 hours. The medium was then removed from each well and replaced with DMSO to dissolve the reduced MTT dye for subsequent colorimetric measurement of absorbance at 595 nm. Cell viabilities are calculated as percentages of that in the corresponding vehicle-treated control group.

LNCaP and PC-3 cells = assay: MTT viability assay, one value stated for both prostate cancer lines; assay type: cell-based; details: MTT, serum-free medium; one value for LNCaP and PC-3; read-out: IC50, antiproliferative effect / viability
Experimental: as §1, §4

[4] = system: phosphorylation of Ser473 in Akt; assay: Western blot of Akt phosphorylation at Ser473; assay type: cell-based; details: LNCaP and PC-3 cells, Thr308 not altered
Experimental: as §3

[5] = Table 3, antitumor activities against PC-3 cells
[6] = PC-3, Table 4, effect of chain length on antiproliferative activity

T1 sequence (P31749 5-108 limits assumed): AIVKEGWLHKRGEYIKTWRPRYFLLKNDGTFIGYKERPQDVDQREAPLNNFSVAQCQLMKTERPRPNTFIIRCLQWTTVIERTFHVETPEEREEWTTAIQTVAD

| IC50 (PC-3 cells; PC-3) [µM] | IC50 (LNCaP cells) [µM] | SMILES | also measured |
| --- | --- | --- | --- |
| 8 |  | CC(C)CCCC1(C)CCc2cc(O)cc(C(F)(F)F)c2O1 (racemic) [Compound 3, 2-methyl-2-(4-methylpentyl)-8-(trifluoro-methyl)chroman-6-ol] | pKd [1]: 6.15; pIC50 (PC-3 cells; [5]): 5.10 |
|  | 40 | CC(C)CCCC1(C)CCc2cc(O)ccc2O1 (racemic) [Compound 29, 2-methyl-2-(4-methylpentyl)chroman-6-ol] |  |
|  | 40 | COc1ccc2c(c1)CCC(C)(CCCC(C)C)O2 (racemic) [Compound 30, 6-methoxy-2-methyl-2-(4-methylpentyl)-chroman] |  |
|  | > 50 | CC(C)CCCC1(C)CCc2cc(N)ccc2O1 (racemic) [Compound 32, 2-methyl-2-(4-methylpentyl)chroman-6-amine] |  |
|  | 30 | CC(C)CCCC1(C)CC(=O)c2cc(O)ccc2O1 (racemic) [Compound 33, 6-hydroxy-2-methyl-2-(4-methylpentyl)chroman-4-one] |  |
|  | 30 | Cc1cc2c(cc1O)C(=O)CC(C)(CCCC(C)C)O2 (racemic) [Compound 34, 6-hydroxy-2,7-dimethyl-2-(4-methylpentyl)chroman-4-one] |  |
|  | > 50 | CC(C)CCCC1(C)CCc2ccc(O)c(O)c2O1 (racemic) [Compound 35, 2-methyl-2-(4-methylpentyl)chroman-7,8-diol] |  |
|  | > 50 | CC(C)CCCC1(C)CC(=O)c2c(O)cc(N3CCCC3)cc2O1 (racemic) [Compound 37, 5-hydroxy-2-methyl-2-(4-methylpentyl)-7-(pyrrolidin-1-yl)chroman-4-one] |  |
|  | 20 | Cc1c(O)cc2c(c1C)OC(C)(CCCC(C)C)CC2 (racemic) [rac-VE5] |  |
| 9 |  | Cc1cc(O)cc2c1OC(C)(CCCC(C)C)CC2 (stereo not drawn) [Compound 2, 2,8-dimethyl-2-(4-methylpentyl)chroman-6-ol] | pKd [1]: 6.22; pIC50 (PC-3 cells; [5]): 5.05 |
| 27 |  | CC(C)CCCC1(C)CCc2cc(O)cc(O)c2O1 (stereo not drawn) [Compound 4, 2-methyl-2-(4-methylpentyl)chroman-6,8-diol] | pKd [1]: 5.70; pIC50 (PC-3 cells; [5]): 4.57 |
| 28 |  | COc1cc(O)cc2c1OC(C)(CCCC(C)C)CC2 (stereo not drawn) [Compound 5, 8-methoxy-2-methyl-2-(4-methylpentyl)-chroman-6-ol] | pKd [1]: 5.51; pIC50 (PC-3 cells; [5]): 4.55 |
| 7 |  | CC(C)CCCC1(C)CCc2cc(O)cc(F)c2O1 (stereo not drawn) [Compound 7, 8-fluoro-2-methyl-2-(4-methylpentyl)-chroman-6-ol] | pKd [1]: 6.30; pIC50 (PC-3 cells; [5]): 5.15 |
| 7 |  | CC(C)CCCC1(C)CCc2cc(O)cc(Br)c2O1 (stereo not drawn) [Compound 8, 8-bromo-2-methyl-2-(4-methylpentyl)-chroman-6-ol] | pKd [1]: 6.19; pIC50 (PC-3 cells; [5]): 5.15 |
| 15 |  | Cc1c(O)cc2c(c1C)NC(C)(CCCC(C)C)CC2 (stereo not drawn) [Compound 9, 2,7,8-trimethyl-2-(4-methylpentyl)-1,2,3,4-tetrahydroquinolin-6-ol] | pKd [1]: 7.00; pIC50 (PC-3 cells; [5]): 4.82 |
| 8.5 |  | CCCCCCCCC1(C)CCc2cc(O)cc(C)c2N1 (stereo not drawn) [Compound 10, 2,8-dimethyl-2-octyl-1,2,3,4-tetrahydro-quinolin-6-ol] | pIC50 (PC-3 cells; [6]): 5.07 |
| > 30 |  | COCCCC1(C)CCc2cc(O)cc(F)c2O1 (stereo not drawn) [Compound 11, 8-fluoro-2-(3-methoxypropyl)-2-methyl-chroman-6-ol] | pIC50 (PC-3 cells; [6]): < 4.52 |
| 8.5 |  | CCCCCCCCC1(C)CCc2cc(O)cc(F)c2O1 (stereo not drawn) [Compound 12, 8-fluoro-2-methyl-2-octylchroman-6-ol] | pIC50 (PC-3 cells; [6]): 5.07 |
| 9 |  | CCc1ccc(CCC2(C)CCc3cc(O)cc(F)c3O2)cc1 (stereo not drawn) [Compound 13, 2-(4-ethylphenethyl)-8-fluoro-2-methyl-chroman-6-ol] | pIC50 (PC-3 cells; [6]): 5.05 |
|  | 30 | Cc1c(O)cc2c(c1C)O[C@](C)(CCCC(C)CCCC(C)C)CC2 (stereo partly drawn) [Compound 27, (2R)-2-(4,8-dimethylnonyl)-2,7,8-trimethylchroman-6-ol] |  |
|  | 42 | Cc1c(C)c2c(c(C)c1O)CC[C@@](C)(CCCC(C)CCCC(C)C)O2 (stereo partly drawn) [Compound 28, (2R)-2-(4,8-dimethylnonyl)-2,5,7,8-tetramethylchroman-6-ol] |  |
|  |  | Cc1c(O)cc2c(c1C)O[C@](C)(CCC[C@H](C)CCC[C@H](C)CCCC(C)C)CC2 [γ-tocopherol, reference compound] | abundance or phosphorylation of mTORC2 components and targets (mTOR, rictor, SGK, PKCα) [2]: no effect; apoptosis in normal prostate epithelial cells [3]: resistant; pIC50 (LNCaP and PC-3 cells): 3.82 to 4.00; effect on phosphorylation of Akt at Ser473 [4]: dose-dependently reduced |

| SMILES | IC50 (PC-3 cells; PC-3) [µM] | IC50 (LNCaP cells) [µM] | also measured |
| --- | --- | --- | --- |
| CC(C)CCCC1(C)CCc2c(O)cccc2O1 (racemic) [Compound 31, 2-methyl-2-(4-methylpentyl)chroman-5-ol] |  | 18 |  |
| CC(C)CCCC1(C)CCc2c(O)cc(N3CCCC3)cc2O1 (racemic) [Compound 36, 2-methyl-2-(4-methylpentyl)-7-(pyrrolidin-1-yl)chroman-5-ol] |  | 21 |  |
